Data on one compound can be found in ChEMBL document CHEMBL4837226, “Discovery of pyrrole derivatives for the treatment of glioblastoma and chronic myeloid leukemia” (Eur J Med Chem, 2021).

Assay [1] concerns U-87 MG. The assay is described as follows: Antitumor activity against human U-87MG cells xenografted in BALB/c nu/nu mouse assessed as reduction in Ki67 expression at 25 mg/kg, ip administered every 2 days for 35 days by DAPI staining based immunofluorescence analysis. The assay is classed as functional, organism-based. Particulars: U-87MG ATCC, time 35.0 day. (Xenograft models place foreign cells or tissue in a host animal.)

In assay [2] the test system is U-87 MG. In words: Antitumor activity against human U-87MG cells xenografted in BALB/c nu/nu mouse assessed as reduction in glioma tumors at 25 mg/kg, ip administered every 2 days for 35 days by hematoxylin and eosin staining based assay. The assay is classed as functional, organism-based. Particulars: U-87MG ATCC, time 35.0 day.
In the next assay the target is Tubulin. In words: Inhibition of tubulin polymerization (unknown origin) assessed as reduction in tubulin assembly preincubated for 15 mins followed by GTP addition by spectrophotometric method. The assay is classed as protein-complex assay, Homo sapiens.
In assay [3] the target is T1, DNA topoisomerase II (Homo sapiens) (UniProt P11388+Q02880). In words: Inhibition of human topoisomerase II assessed as reduction in decantenation using kinetoplast DNA as a substrate at 10 to 50 uM measured after 1 hr by ethidium bromide staining based agarose gel electrophoresis analysis. It is filed as protein assay. As to conditions: dose 10-50 µM.
The subject of assay [4] is KBM5. In words: Potentiation of ponatinib-induced mitochondrial membrane depolarization in human KBM5 cells expressing T315I mutant at 5 nM measured upto 48 hrs by JC-1 staining based flow cytometry analysis. The assay is classed as functional, cell-based. Particulars: time hrs <=48. (In general: Flow cytometry measures light scatter and fluorescence of single cells or particles in a stream.)

For assay [5], the system named is KBM5. The assay is described as follows: Induction of apoptosis in human KBM5 cells expressing T315I mutant assessed as increase in Bcr-Abl expression at 1 to 10 uM measured after 24 hrs by western blot analysis. The assay is classed as functional, cell-based. Particulars: dose 1-10 µM. On the technique in general: Immunoblotting shows a protein as a band on a membrane.

The target of assay [6] is T1, DNA topoisomerase II (Homo sapiens). In words: Inhibition of human topoisomerase II assessed as reduction in decantenation using kinetoplast DNA as a substrate at 100 uM measured after 1 hr by ethidium bromide staining based agarose gel electrophoresis analysis relative to control. It is filed as protein assay.
In assay [7] the target is T2, DNA topoisomerase 1 (Homo sapiens) (UniProt P11387).
T2 sequence (whole entry): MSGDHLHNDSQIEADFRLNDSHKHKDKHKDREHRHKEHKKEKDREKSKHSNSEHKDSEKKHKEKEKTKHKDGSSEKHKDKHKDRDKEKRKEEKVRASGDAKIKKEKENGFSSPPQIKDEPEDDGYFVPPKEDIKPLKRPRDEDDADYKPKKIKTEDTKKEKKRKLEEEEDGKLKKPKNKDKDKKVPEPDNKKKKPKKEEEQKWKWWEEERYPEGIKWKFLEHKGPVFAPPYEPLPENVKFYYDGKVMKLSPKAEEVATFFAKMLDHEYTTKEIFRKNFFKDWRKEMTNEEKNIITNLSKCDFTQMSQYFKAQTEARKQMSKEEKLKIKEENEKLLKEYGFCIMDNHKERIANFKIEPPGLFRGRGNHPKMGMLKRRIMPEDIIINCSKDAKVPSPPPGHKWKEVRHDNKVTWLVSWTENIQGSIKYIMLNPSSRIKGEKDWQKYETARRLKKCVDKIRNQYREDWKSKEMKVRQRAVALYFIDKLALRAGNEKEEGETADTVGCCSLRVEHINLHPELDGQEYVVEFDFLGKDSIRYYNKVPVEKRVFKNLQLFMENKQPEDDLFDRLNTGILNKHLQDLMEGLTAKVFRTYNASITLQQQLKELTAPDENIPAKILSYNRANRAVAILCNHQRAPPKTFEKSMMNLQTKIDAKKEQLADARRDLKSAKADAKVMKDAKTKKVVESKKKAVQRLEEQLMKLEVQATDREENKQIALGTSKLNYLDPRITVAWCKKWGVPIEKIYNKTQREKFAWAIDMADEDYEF
The assay is described as follows: Inhibition of human recombinant topoisomerase I using supercoiled pHOT1 plasmid DNA as substrate at 10 to 100 uM measured after 1 hr by agarose gel electrophoresis analysis. Particulars: dose 10-100 µM.

Assay [8] relates to U-87 MG. The assay is described as follows: Antitumor activity against human U-87MG cells xenografted in BALB/c nu/nu mouse assessed as reduction in CD31 marker expression at 25 mg/kg, ip administered every 2 days for 35 days by DAPI staining based immunofluorescence analysis. The assay is classed as functional, organism-based. As to conditions: U-87MG ATCC, time 35.0 day.
A further assay deals with KU812 cell line. In words: Cytotoxicity against Bcr-Abl expressing human KU812 cells assessed as cell growth inhibition measured after 48 hrs by MTT assay. As to conditions: KU812, 48 h. It is filed as functional, cell-based.

In general, pIC50 refers to the negative decadic logarithm of the IC50, by convention in mol/L. The inhibition is the percentage by which the read-out fell short of the control.

pIC50: −log10 of the molar value. The source made the active and inactive calls. The calls are words filed in the database; no cut-off is given here.

Turning to `COc1cc(C(=O)c2cn(-c3ccc(C)cc3)cc2-c2ccsc2)cc(OC)c1OC`, the outcome in the assay on U-87 MG [1], in the assay with U-87 MG [2], in the assay on KBM5 [4], in the assay on KBM5 [5] and in the assay with U-87 MG [8] was Active. The negative-log IC50 (pIC50) was 6.41 on Tubulin and 8.02 in the assay on KU812 cell line. Besides, the inhibition entry in assay [3] and in [7] was “inactive” in each case. Besides, the inhibition in assay [6] came to 100%.
